Data published in patent US9138659B2, “Compositions, methods, and systems relating to controlled crystallization and/or nucleation of molecular species” (Massachusetts Institute of Technology, priority 2010, dated 2015).
Values joined by “and” are separate entries in the source; they are usually repeats but may differ in a detail not shown here. Equal values may be shown once.

Experiments:
[1] = Partition coefficients of CBZ and ROY in PEGMDA microgels from ethanol solutions; format: physicochemical; details: for Partition coefficient κ (solute mass fraction in gel solution / bulk): ethanol solution
[2] = ROY nucleation induction time with PEGMDA microgels in ethanol; format: physicochemical; details: for τ(O): ROY orange needle form; for τ(R): ROY red form; for τ(Y): ROY yellow form
Experimental: (§1) In each experiment, crystallization of pure forms of either Y (yellow prisms), R (red prisms) or ON (orange needles) were observed from ethanol solution stochastically (FIG. 30), and their frequencies of occurrence were calculated by conducting 50-150 experiments in each case (FIG. 31). Nucleation induction time data from bulk solution or with PEG130DA microgels were fitted with the stretched exponential model and the average induction time thus regressed represents an average of all forms (Table 10), since the frequencies of occurrence for R and ON were too low for separate statistical analysis. […] In the multi-exponential model, each exponential decay process may be better represented with a stretched exponential, however, a simple exponential suffices in this case and decent fit was obtained with R^2 very close to unity (Table 11).
Nucleation induction time statistics of ROY with or without the presence of PEGDA microgels were determined. For each type of samples, 50-100 experiments were performed to obtain the induction time statistics wherein P is the probability for observing no crystallization event within time t is estimated from the fraction of samples haven't crystallized at this time point. Either stretched exponential model or multi-exponential models were employed to fit the data (see Tables 10 and 11).
Induction time distribution data were fitted with stretched exponentials via nonlinear least square regression: P=exp[−(t/τ)^β], where P is the probability to observe no crystallization event within time t. τ is an average of induction times for all Y, R, ON forms.
Induction time distribution data were fitted with superposition of two or three exponentials via nonlinear least square regression. Two-exponential fit was employed for PEG200DA and PEG700DA samples: P=a·exp[−t/τ(Y)]+(1−a)·exp[−t/τ(R)], with τ(R) an average of forms R and O for the PEG700DA sample. Three-exponential fit was used for PEG400DA and PEG575DA samples: P=a·exp[−t/τ(Y)]+b·exp[−t/τ(R)]+(1−a−b)·exp[−t/τ(O)], where Y, R, and O represent the yellow, red and orange needle forms respectively. *τ, an average induction time of Form R and ON, given the lack of data points to distinguish the two.

[3] = ROY polymorph frequency of occurrence; format: physicochemical; details: vs bulk crystallization
Experimental: as §1
In FIG. 31: Polymorph frequency of occurrence in 12 mg/ml ROY-ethanol solution with or without microgels of various mesh sizes (left) and at higher solution concentrations, C0 (right). Frequency of occurrence is calculated as the percentage of samples crystallized in a particular form within 1440 min out of the total number of samples. The analysis for 12 mg/ml solution is carried out previously. In summary, addition of PEGDA microgels accelerated crystallization of all three forms, Y, R and ON.

[4] = ROY; at the chosen experimental condition; cited from earlier work
[5] = ROY nucleation induction time with PEGMDA microgels in ethanol; format: physicochemical; details: ROY Form R; without microgels
[6] = Preferred orientation of ROY crystals on PEGMDA polymer films by XRD; format: physicochemical
Description: The ROY-polymer interactions were probed via preferred crystal orientations on flat PEGMDA films. From the bulk solution, ROY crystallized in Form Y predominantly. In comparison, PEGMDA films templated nucleation of R, as well as Y, which is consistent with the observations with microgels. […] To verify this observation, the contribution from each crystal facet was quantified and listed the prominent ones in Table 12. […] Polymers with M=130, 200 g/mol favor R (111) and R (220). As M increases, percentage of R decreases and Y increases to become the dominant polymorph on M=575, 700 g/mol, which is contact with the polymer via Y (020) and/or (040) facet.
XRD patterns of ROY crystallized from bulk solution and on PEGDA films under the substantially similar conditions were obtained. Additional peaks observed from crystals templated by polymer films but not from bulk crystals were observed. Reference patterns were calculated from CSD using POWD-12++.
Analysis on the XRD data is carried out by normalizing the measured peak intensities Ip^i with the reference peak intensities Ibulk^i from the bulk sample, following the formula
[formula] where ηi is the percentage of crystals in orientation i, and p is short for polymer. Percentages are highlighted as bold for dominant orientations in each case.

[7] = PEGMDA polymer film M 130 g/mol
[8] = PEGMDA polymer film M 200 g/mol
[9] = PEGMDA polymer film M 400 g/mol
[10] = PEGMDA polymer film M 575 g/mol
[11] = PEGMDA polymer film M 700 g/mol

ROY concentration in the gel phase relative to bulk solution ([1]; PEGMDA gels, ethanol): 6-11 times
Partition coefficient κ (solute mass fraction in gel solution / bulk) ([1]; PEGMDA microgels M 130 g/mol): 6.3 ± 0.2
Partition coefficient κ (solute mass fraction in gel solution / bulk) ([1]; PEGMDA microgels M 200 g/mol): 6.1 ± 0.9
Partition coefficient κ (solute mass fraction in gel solution / bulk) ([1]; PEGMDA microgels M 400 g/mol): 11.0 ± 0.4
Partition coefficient κ (solute mass fraction in gel solution / bulk) ([1]; PEGMDA microgels M 575 g/mol): 11.3 ± 1.6
Partition coefficient κ (solute mass fraction in gel solution / bulk) ([1]; PEGMDA microgels M 700 g/mol): 11.8 ± 1.1
time within which all nucleation of Y occurred ([2]; ROY Form Y, PEG200DA microgels): ≤ 100 min
τ(O) ([2]; PEG400DA microgels): 3300 min
τ(O) ([2]; PEG575DA microgels): 2900 min
τ(R) ([2]; PEG200DA microgels): 9000 ± 6000 min
τ(R) ([2]; PEG400DA microgels): 1600 ± 400 min
τ(R) ([2]; PEG575DA microgels): 200 min and 200 ± 20 min
τ(Y) ([2]; PEG200DA microgels): 26.0 ± 1.5 min
τ(Y) ([2]; PEG400DA microgels): 22.0 ± 0.6 min
τ(Y) ([2]; PEG575DA microgels): 10.0 ± 0.8 min
τ(Y) ([2]; PEG700DA microgels): 12.0 ± 1.2 min
average nucleation induction time τ (average of Y, R, ON forms) ([2]; ROY, Bulk ethanol solution): 10000 ± 2000 min
average nucleation induction time τ (average of Y, R, ON forms) ([2]; ROY, PEG130DA microgels): 4000 ± 750 min
τ(R), an average induction time of Form R and ON ([2]; ROY, PEG700DA microgels): 2600 ± 400 min
improvement of Form R frequency of occurrence by polymer microgels [3]: up to 20 times
average induction time of R [5]: over 10000 min
Percentage of ROY crystals in orientation R (111) [6, 7]: 38.0%
Percentage of ROY crystals in orientation R (220) [6, 7]: 46.8%
Percentage of ROY crystals in orientation Y (020) [6, 7]: 7.5%
Percentage of ROY crystals in orientation Y (040) [6, 7]: 3.4%
Percentage of ROY crystals in orientation R (111) [6, 8]: 36.2%
Percentage of ROY crystals in orientation R (220) [6, 8]: 53.6%
Percentage of ROY crystals in orientation Y (020) [6, 8]: 3.5%
Percentage of ROY crystals in orientation Y (040) [6, 8]: 1.6%
Percentage of ROY crystals in orientation R (111) [6, 9]: 28.8%
Percentage of ROY crystals in orientation R (220) [6, 9]: 24.9%
Percentage of ROY crystals in orientation Y (020) [6, 9]: 23.6%
Percentage of ROY crystals in orientation Y (040) [6, 9]: 9.9%
Percentage of ROY crystals in orientation R (111) [6, 10]: 12.9%
Percentage of ROY crystals in orientation R (220) [6, 10]: 20.0%
Percentage of ROY crystals in orientation Y (020) [6, 10]: 26.9%
Percentage of ROY crystals in orientation Y (040) [6, 10]: 13.1%
Percentage of ROY crystals in orientation R (111) [6, 11]: 9.8%
Percentage of ROY crystals in orientation R (220) [6, 11]: 14.4%
Percentage of ROY crystals in orientation Y (020) [6, 11]: 50.9%
Percentage of ROY crystals in orientation Y (040) [6, 11]: 16.9%
Structure (SMILES): Cc1cc(C#N)c(Nc2ccccc2[N+](=O)[O-])s1 [ROY, 5-methyl-2-[(2-nitrophenyl)amino]-3-thiophenecarbonitrile]
relative stability of the three observed polymorphs [4]: Y>ON>R
